Laboratory results as given in PubChem BioAssay (NCI).
Where “and” joins values, the source holds several entries; their conditions need not be identical. Identical values can stand only once.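 Growth conditions: 96-well plates. Treatment: test compound, 48 hours, 5 concentrations. Analysis: linear interpolation between bracketing concentrations; unreached endpoints set to highest concentration. GI50: concentration for 50% inhibition of growth. At the TGI there is no net growth.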

Tests used:
Test in all cases: DTP human tumour cell line panel, 48 h
OVCAR-5 ovarian = system: OVCAR-5 ovarian
SNB-75 CNS = system: SNB-75 CNS
HCT-116 colon = system: HCT-116 colon
UACC-62 melanoma = system: UACC-62 melanoma
OVCAR-8 ovarian = system: OVCAR-8 ovarian
LOX IMVI melanoma = system: LOX IMVI melanoma
RPMI-8226 leukemia = system: RPMI-8226 leukemia
HOP-62 NSCLC = system: HOP-62 NSCLC
NCI-H226 lung = system: NCI-H226 lung
NCI/ADR-RES ovarian = system: NCI/ADR-RES ovarian

## CCOC(=O)C=C1CCN(C(=O)c2ccccc2)CC1
OVCAR-5 ovarian
  TGI: > 100 µM
SNB-75 CNS
  TGI: > 100 µM
HCT-116 colon
  TGI: > 100 µM
UACC-62 melanoma
  TGI: > 100 µM
OVCAR-8 ovarian
  TGI: > 100 µM
LOX IMVI melanoma
  TGI: > 100 µM
RPMI-8226 leukemia
  TGI: > 100 µM
HOP-62 NSCLC
  TGI: > 100 µM

## CC(C)(O)c1ccc(N2CCN(c3nnc(Cc4ccccc4)c4ccccc34)CC2)nc1
OVCAR-5 ovarian
  GI50: 17.2 µM
  TGI: 38.9 µM
SNB-75 CNS
  GI50: 9.74 µM
  TGI: 24.5 µM
NCI-H226 lung
  GI50: 5.76 µM
  TGI: 22.4 µM
HCT-116 colon
  GI50: 8.25 µM
  TGI: 54.1 µM
UACC-62 melanoma
  GI50: 8.44 µM
  TGI: 21.9 µM
OVCAR-8 ovarian
  GI50: 8.01 µM
  TGI: 42.5 µM
NCI/ADR-RES ovarian
  GI50: 4.09 µM
  TGI: 46.8 µM
LOX IMVI melanoma
  GI50: 14 µM
  TGI: 35.5 µM
HOP-62 NSCLC
  GI50: 13.7 µM
  TGI: 28.6 µM

## CN1CCc2c1nc(-c1ccccc1)c1c2N(C)CC1
OVCAR-5 ovarian
  TGI: > 100 µM
SNB-75 CNS
  TGI: > 100 µM
HCT-116 colon
  TGI: > 100 µM
UACC-62 melanoma
  TGI: > 100 µM
OVCAR-8 ovarian
  TGI: > 100 µM
LOX IMVI melanoma
  TGI: > 100 µM
RPMI-8226 leukemia
  TGI: > 100 µM
HOP-62 NSCLC
  TGI: > 100 µM

## COc1cc2cc(Oc3ccc(NC(=O)Nc4ccc(Cl)c(C(F)(F)F)c4)cc3)c(C)nc2cc1OCCN1CCCCC1
OVCAR-5 ovarian
  GI50: 1.92 µM
  TGI: 3.38 µM
SNB-75 CNS
  GI50: 1.13 µM
  TGI: 2.33 µM
HCT-116 colon
  GI50: 1.54 µM
  TGI: 2.98 µM
UACC-62 melanoma
  GI50: 1.69 µM
  TGI: 3.08 µM
NCI/ADR-RES ovarian
  GI50: 1.69 µM
  TGI: 3.27 µM

## Cc1ccc(C(=O)Nc2ccc(S(=O)(=O)O)c3cc(S(=O)(=O)O)cc(S(=O)(=O)O)c23)cc1NC(=O)c1cccc(N)c1
OVCAR-5 ovarian
  TGI: > 100 µM
SNB-75 CNS
  TGI: > 100 µM
NCI-H226 lung
  TGI: > 100 µM
UACC-62 melanoma
  TGI: > 100 µM
OVCAR-8 ovarian
  TGI: > 100 µM
NCI/ADR-RES ovarian
  TGI: > 100 µM
HOP-62 NSCLC
  TGI: > 100 µM

## CCc1ccc(NCc2cc(OC)c(OC)c(OC)c2)cc1
OVCAR-5 ovarian
  GI50: 4.09 µM
  TGI: > 76.1 µM
SNB-75 CNS
  GI50: 0.387 µM and 0.882 µM
  TGI: > 100 µM
NCI-H226 lung
  TGI: > 85 µM
HCT-116 colon
  TGI: 10.2 µM and 27.4 µM
UACC-62 melanoma
  GI50: 0.22 µM and 0.105 µM
  TGI: 83.1 µM and > 85.3 µM
OVCAR-8 ovarian
  GI50: 0.687 µM and 1.45 µM
  TGI: 43.6 µM and 48.1 µM
LOX IMVI melanoma
  GI50: 0.543 µM and 0.149 µM
  TGI: 25.7 µM and 43.8 µM
RPMI-8226 leukemia
  TGI: 40.7 µM and 52 µM
HOP-62 NSCLC
  TGI: 52.4 µM and 35.5 µM

## CC1=C(C(=O)OCc2ccccc2)C(c2ccc3c(c2)OCO3)n2c(nc3ccccc32)N1 (stereo unspecified)
OVCAR-5 ovarian
  GI50: > 100 µM
  TGI: > 100 µM
SNB-75 CNS
  GI50: 0.215 µM
  TGI: 0.801 µM
NCI-H226 lung
  GI50: > 100 µM
  TGI: > 100 µM
HCT-116 colon
  GI50: 0.42 µM
  TGI: > 100 µM
UACC-62 melanoma
  GI50: 0.513 µM
  TGI: > 100 µM
OVCAR-8 ovarian
  GI50: 0.628 µM
  TGI: > 100 µM
NCI/ADR-RES ovarian
  GI50: 0.311 µM
  TGI: > 100 µM
LOX IMVI melanoma
  GI50: 0.566 µM
  TGI: > 100 µM
HOP-62 NSCLC
  GI50: 8.01 µM
  TGI: > 100 µM

## COc1cccc(OC(=O)c2ccccc2Nc2ccnc(C(F)(F)F)c2)c1
OVCAR-5 ovarian
  GI50: 3.53 µM
  TGI: 35.6 µM
NCI-H226 lung
  GI50: 8.09 µM
  TGI: 77.3 µM
HCT-116 colon
  GI50: 1.12 µM
  TGI: 3.07 µM
UACC-62 melanoma
  GI50: 3.09 µM
  TGI: 33.9 µM
OVCAR-8 ovarian
  GI50: 3.63 µM
  TGI: 29.3 µM
LOX IMVI melanoma
  GI50: 1.07 µM
  TGI: 10.4 µM
RPMI-8226 leukemia
  GI50: 1.01 µM
  TGI: 3.86 µM
HOP-62 NSCLC
  GI50: 2.84 µM
  TGI: 6.73 µM

## O=C1C/C(=C/c2ccc(/C=C3/CC(=O)N(c4cccc(Br)c4)C3=O)cc2)C(=O)N1c1cccc(Br)c1
OVCAR-5 ovarian
  TGI: > 100 µM
SNB-75 CNS
  TGI: 53.1 µM
NCI-H226 lung
  TGI: > 100 µM
HCT-116 colon
  TGI: > 100 µM
UACC-62 melanoma
  TGI: > 100 µM
OVCAR-8 ovarian
  TGI: > 100 µM
LOX IMVI melanoma
  TGI: > 100 µM
RPMI-8226 leukemia
  TGI: > 100 µM
HOP-62 NSCLC
  TGI: > 100 µM

## COC(=O)c1[nH]c(=S)[nH]c(=O)c1-c1ccc(Cl)cc1
OVCAR-5 ovarian
  TGI: > 50 µM
SNB-75 CNS
  TGI: > 50 µM
NCI-H226 lung
  TGI: > 50 µM
HCT-116 colon
  TGI: > 50 µM
UACC-62 melanoma
  TGI: > 50 µM
OVCAR-8 ovarian
  TGI: > 50 µM
LOX IMVI melanoma
  TGI: > 50 µM
RPMI-8226 leukemia
  TGI: > 50 µM
HOP-62 NSCLC
  TGI: > 50 µM

## CCCC(O)[C@@H](O)c1ccc2c(c1O)C(=O)c1c(OC)cccc1C2=O (stereo partly specified)
OVCAR-5 ovarian
  TGI: > 100 µM
SNB-75 CNS
  TGI: > 100 µM
NCI-H226 lung
  TGI: > 100 µM
HCT-116 colon
  TGI: > 100 µM
UACC-62 melanoma
  TGI: 61.8 µM
OVCAR-8 ovarian
  TGI: > 100 µM
LOX IMVI melanoma
  TGI: 80.4 µM
RPMI-8226 leukemia
  TGI: 38.2 µM
HOP-62 NSCLC
  TGI: > 100 µM

## Nc1cc(=O)[nH]c(SC2=NC(N)CC(O)C2)n1 (stereo unspecified)
OVCAR-5 ovarian
  TGI: > 100 µM
SNB-75 CNS
  TGI: > 100 µM
NCI-H226 lung
  TGI: > 100 µM
UACC-62 melanoma
  TGI: > 100 µM
OVCAR-8 ovarian
  TGI: > 100 µM
LOX IMVI melanoma
  TGI: > 100 µM
RPMI-8226 leukemia
  TGI: > 100 µM
HOP-62 NSCLC
  TGI: > 100 µM

## O=C(CCN1CCCC1)Nc1ccc2c(NCc3ccc(F)cc3)c3ccccc3nc2c1
OVCAR-5 ovarian
  GI50: 0.48 µM
  TGI: 2.01 µM
SNB-75 CNS
  GI50: 0.506 µM
  TGI: 1.87 µM
NCI-H226 lung
  GI50: 0.57 µM
  TGI: 2.63 µM
HCT-116 colon
  GI50: 0.313 µM
  TGI: 1.35 µM
UACC-62 melanoma
  GI50: 0.827 µM
  TGI: 2.16 µM
OVCAR-8 ovarian
  GI50: 0.517 µM
  TGI: 2.86 µM
NCI/ADR-RES ovarian
  GI50: 9.11 µM
  TGI: 43.9 µM
LOX IMVI melanoma
  GI50: 0.38 µM
  TGI: 1.48 µM
HOP-62 NSCLC
  GI50: 0.611 µM
  TGI: 2.62 µM

## CCOC(=O)c1c2c(n(CC(C)C)c1C)-c1nc[nH]c1C(=O)C2=O
NCI-H226 lung
  GI50: 15 µM
  TGI: 28.5 µM
HCT-116 colon
  GI50: 5.92 µM
  TGI: 18.8 µM
OVCAR-8 ovarian
  GI50: 15.8 µM
  TGI: 29.3 µM
LOX IMVI melanoma
  GI50: 7.91 µM
  TGI: 20.5 µM
RPMI-8226 leukemia
  GI50: 8.91 µM
  TGI: 21.6 µM
HOP-62 NSCLC
  GI50: 19.1 µM
  TGI: 34.2 µM

## COc1ccc2c(c1)CCC1C2CCC2(C)C1CCC2(O)CNC(=O)CCCCC1CCSS1 (stereo unspecified)
OVCAR-5 ovarian
  GI50: > 100 µM
  TGI: > 100 µM
NCI-H226 lung
  GI50: 13.3 µM
  TGI: > 100 µM
HCT-116 colon
  GI50: 9.3 µM
  TGI: > 100 µM
UACC-62 melanoma
  GI50: 13.9 µM
  TGI: 49.4 µM
OVCAR-8 ovarian
  GI50: 11.7 µM
  TGI: > 100 µM
NCI/ADR-RES ovarian
  GI50: 7.28 µM
  TGI: > 100 µM
LOX IMVI melanoma
  GI50: 4.37 µM
  TGI: > 100 µM
RPMI-8226 leukemia
  GI50: 2.43 µM
  TGI: 9.48 µM
HOP-62 NSCLC
  GI50: 25 µM
  TGI: > 100 µM

## CN(C)CCCNC(=O)c1cc(NC(=O)CCNS(=O)(=O)c2ccc3c(c2)C(=O)c2ccccc2C3=O)cn1C
OVCAR-5 ovarian
  GI50: > 100 µM
  TGI: > 100 µM
NCI-H226 lung
  GI50: > 100 µM
  TGI: > 100 µM
HCT-116 colon
  GI50: > 100 µM
  TGI: > 100 µM
UACC-62 melanoma
  GI50: > 100 µM
  TGI: > 100 µM
OVCAR-8 ovarian
  GI50: > 100 µM
  TGI: > 100 µM
NCI/ADR-RES ovarian
  GI50: > 100 µM
  TGI: > 100 µM
RPMI-8226 leukemia
  GI50: > 100 µM
  TGI: > 100 µM
HOP-62 NSCLC
  GI50: > 100 µM
  TGI: > 100 µM

## Cc1ccc2[nH]c(C(=O)NN3C(=O)CSC34CCCCC4C)c(-c3ccccc3)c2c1 (stereo unspecified)
OVCAR-5 ovarian
  GI50: 19.7 µM
  TGI: 36.1 µM
SNB-75 CNS
  GI50: 19.6 µM
  TGI: 38.1 µM
NCI-H226 lung
  GI50: 17.5 µM
  TGI: 34.2 µM
HCT-116 colon
  GI50: 14.5 µM
  TGI: 34.2 µM
UACC-62 melanoma
  GI50: 12.8 µM
  TGI: 26.8 µM
OVCAR-8 ovarian
  GI50: 17.2 µM
  TGI: 35.6 µM
LOX IMVI melanoma
  GI50: 18.9 µM
  TGI: 35.6 µM
RPMI-8226 leukemia
  GI50: 13.8 µM
  TGI: 35.2 µM
HOP-62 NSCLC
  GI50: 18 µM
  TGI: 33.9 µM
